Literature values in patent US20220218650A1, “COMPOSITION AND METHOD FOR TREATING PAIN” (Zelira Therapeutics Operations Pty Ltd, priority 2018, published 2022).

Conditions: treatment group (5 mg THC); control group 74 mg; difference not statistically significant (n=105)

SMILES: CCCCCc1cc(O)c2c(c1)OC(C)(C)[C@@H]1CCC(C)=C[C@@H]21 [dronabinol]
- Median dose of micro-opioid agonist piritramide in the two days post surgery: 54 mg
